According to patent US20040266696A1, “Angiogenesis drugs” (priority 2001, published 2004):
Square brackets hold non-standard residues; d marks the D form. Ends that are not written are not given here.

Columns and labels:
[1] = system: mouse; test: Angiogenesis action in vivo examined by DAS assay (microcell embedded in the back of mouse); settings: for angiogenic activity / angiogenesis action (summary in words): DAS assay in mice; for Angiogenesis Magnitude (number of newly formed spiral blood vessels): peptide 10 μg/ml in DMEM injected into microcell in back of mouse, observed five days later; for formation of capillary / spiral blood vessels in tissue contacting the microcell (observation): peptide 10 μg/ml in DMEM; for formation of capillary / spiral blood vessels in tissue contacting the microcell (observation) / angiogenesis magnitude: microcell in back of mouse, five days; for angiogenesis magnitude: peptide-bound gelatin collagen I mixture solution 10 μg/ml
Procedure: A solution containing the peptide at a concentration of 10 μg/ml in DMEM (Dulbecco's modified Eagle medium) used as a cell culture medium was prepared.
The magnitude indicates the number of newly formed spiral blood vessels, and M0 means that the number is 0, M1 means 1 to 10, M2 means 11 to 20, M3 means 21 to 30, M4 means 31 to 40, M5 means 41 to 50 and M6 means 51 or more. Thus, the larger the magnitude M, the higher the angiogenic activity.
The AGP conjugate (prepared in Example 10) having a concentration of 100 μg/ml was dissolved in collagen I at a ratio of 1:10 to obtain a peptide-bound gelatin collagen mixture solution having a concentration of 10 μg/ml.

[2] = system: transformed rat lung endothelial cells (TRLECs); test: Angiogenic action in three-dimensionally cultured vascular endothelial tissue (tube formation); type: cell-based
Procedure: Rat vascular endothelial cells were three-dimensionally cultured in the presence of AGP synthesized in Example 1. As the cells, transformed rat lung endothelial cells (TRLECs) were used. TRLECs were placed in a collagen I layer mixed with the peptide solution, which contained 10 μg/ml of AGP, and cultured in a carbon dioxide gas incubator for 14 days. Control experiments were carried out in the absence of a factor. And positive control experiments were performed in the presence of VEGF, which is known as a potent angiogenesis factor.
No tubes were detected in the control at all. […] It was observed that a plurality of microvilli were found on the inner surfaces of the tubes. […] Tight junction formation was observed where the endothelial cells were firmly bound. These observations indicate that the endothelial cells acquired polarity and formed tubes. The polarity means that a cell develops regions having different functions such as head and tail. No polarity is given to the endothelial cells when the endothelial cells are cultured in a usual way, and so no tubes are formed.
Rat vascular endothelial cells were three-dimensionally cultured in the presence of AGP-bound gelatin synthesized in Example 10. As the cells, transformed rat lung endothelial cells (TRLECs) were used. Peptide AGP-bound gelatin (conjugate) and collagen type I were mixed at a ratio of 1:10, and TRLECs were placed in a layer containing the conjugate-collagen mixture solution, having a final concentration of 10 μg (microgram/ml) and cultured in a carbon dioxide gas incubator for 14 days. Control experiments were carried out in the absence of a factor, and in the presence of VEGF known as an angiogenesis factor.
No tube formations were detected in the control at all. […] It was observed that a plurality of microvilli were formed on the inner surfaces of the tubes. […] Tight junction formation was observed where the endothelial cells were firmly bound. These observations indicate that the endothelial cells acquired polarity and formed tubes.

[3] = TRLECs in collagen I layer, 10 μg/ml of AGP, cultured 14 days, microscope

Substance: AGP4: AGP heptapeptide wherein the fourth amino acid tyrosine was substituted by alanine (SVVAGLR; Oligopeptide not having angiogenic activity)
- angiogenic activity / angiogenesis action (summary in words) [1]: angiogenesis action was lost
- Angiogenesis Magnitude (number of newly formed spiral blood vessels) [1]: M0 (M0 means that the number is 0)
- formation of capillary / spiral blood vessels in tissue contacting the microcell (observation) [1]: not observed at all

Substance: AGP: heptapeptide (angiogenic peptide) having the amino acid sequence shown in SEQ ID NO: 1 (SVVYGLR; Oligopeptide having angiogenic activity)
- angiogenic activity / angiogenesis action (summary in words) [1]: strong (prominent) angiogenesis action
- Angiogenesis Magnitude (number of newly formed spiral blood vessels) [1]: M5 (M5 means 41 to 50)
- formation of capillary / spiral blood vessels in tissue contacting the microcell (observation) [1]: a number of branched capillary blood vessels were formed
- angiogenesis magnitude [1]: M5 (M5 means 41 to 50)
- tube-like structure formation by endothelial cells [2, 3]: arranged in the tube-like structure
- lengths of the tubes formed, compared with VEGF ([2]; TRLECs in collagen I layer, 10 μg/ml, 14 days): significantly longer

Substance: GLR (Oligopeptide not having angiogenic activity) [compound 7]
- Angiogenesis Magnitude (number of newly formed spiral blood vessels) [1]: M0 (M0 means that the number is 0)

Substance: GRGDSVVYGLR (Oligopeptide having angiogenic activity) [Example 16]
- angiogenic activity / angiogenesis action (summary in words) [1]: high angiogenic activities

Substance: SVV (Oligopeptide not having angiogenic activity) [compound 4]
- Angiogenesis Magnitude (number of newly formed spiral blood vessels) [1]: M0 (M0 means that the number is 0)

Substance: SVV yGLR (SVV[dY]GLR) [Example 18]
- Angiogenesis Magnitude (number of newly formed spiral blood vessels) [1]: M2 (M2 means 11 to 20)

Substance: SVVFGLR (Oligopeptide having angiogenic activity) [Example 12]
- angiogenic activity / angiogenesis action (summary in words) ([1]; listed as SEQ ID NO: 9): especially high angiogenic activity
- angiogenic activity / angiogenesis action (summary in words) ([1]; listed as SEQ ID NO:9): higher angiogenic activity than the peptide having the amino acid sequence shown in SEQ ID NO: 1
- Angiogenesis Magnitude (number of newly formed spiral blood vessels) [1]: M6 (M6 means 51 or more)

Substance: SVVWGLR (Oligopeptide having angiogenic activity) [Example 19]
- Angiogenesis Magnitude (number of newly formed spiral blood vessels) [1]: M3 (M3 means 21 to 30)

Substance: SVVY (Oligopeptide having angiogenic activity) [Example 21]
- Angiogenesis Magnitude (number of newly formed spiral blood vessels) [1]: M1 (M1 means 1 to 10)

Substance: SVVYG (Oligopeptide having angiogenic activity) [Example 20]
- Angiogenesis Magnitude (number of newly formed spiral blood vessels) [1]: M2 (M2 means 11 to 20)

Substance: SVVYGL (Oligopeptide having angiogenic activity) [Example 13]
- Angiogenesis Magnitude (number of newly formed spiral blood vessels) [1]: M5 (M5 means 41 to 50)

Substance: SVVYGLRG (Oligopeptide having angiogenic activity) [Example 15]
- angiogenic activity / angiogenesis action (summary in words) [1]: high angiogenic activities

Substance: VEGF
- Angiogenesis Magnitude (number of newly formed spiral blood vessels) [1]: M3 (M3 means 21 to 30)
- angiogenesis magnitude [1]: M3 (M3 means 21 to 30)
- tube-like structure formation by endothelial cells [2, 3]: arranged in the tube-like structure
- tube-like structure formation by endothelial cells ([2]; TRLECs in conjugate-collagen type I mixture (1:10), final concentration 10 μg/ml, 14 days): arranged in the tube-like structure

Substance: VVYGLR (Oligopeptide having angiogenic activity) [Example 14]
- Angiogenesis Magnitude (number of newly formed spiral blood vessels) [1]: M5 (M5 means 41 to 50)

Substance: VYGLR (Oligopeptide not having angiogenic activity) [compound 5]
- Angiogenesis Magnitude (number of newly formed spiral blood vessels) [1]: M0 (M0 means that the number is 0)

Substance: YGLR (Oligopeptide not having angiogenic activity) [compound 6]
- Angiogenesis Magnitude (number of newly formed spiral blood vessels) [1]: M0 (M0 means that the number is 0)
